In brackets after ≈: the same amount, converted by molar mass.
Experiment: Cytotoxicity of compound was determined against KB cells
Type: functional, cell-based
Conditions: Homo sapiens

| SMILES | IC50 |
| --- | --- |
| COc1ccc(C[C@H]2NC(=O)/C=C/C[C@@H]([C@H](C)C3OC3c3ccccc3)OC(=O)[C@H](CC(C)C)OCCNC2=O)cc1 (some centres undefined) | 40 ng/mL (≈ 69.1 nM) |
| COc1ccc(C[C@H]2NC(=O)/C=C/C[C@@H]([C@H](C)C3OC3c3ccccc3)OC(=O)[C@H](CC(C)C)CC(=O)CCNC2=O)cc1 (some centres undefined) | 70 ng/mL (≈ 116 nM) |
| COc1ccc(C[C@H]2NC(=O)/C=C/C[C@@H]([C@H](C)C3OC3c3ccccc3)OC(=O)[C@H](CC(C)C)NC(=O)CCNC2=O)cc1 (some centres undefined) | 6 ng/mL (≈ 9.91 nM) |
| COc1ccc(C[C@H]2NC(=O)/C=C/C[C@@H]([C@H](C)[C@H]3O[C@@H]3c3ccccc3)OC(=O)[C@H](CC(C)C)OC(=O)CCNC2=O)cc1 [ARENASTATIN A] | 0.005 ng/mL (≈ 0.00824 nM) |

— ChEMBL document CHEMBL1133271, “Synthesis and biological property of carba and 20-deoxo analogues of arenastatin A” (Bioorg Med Chem Lett, 2000)
